Numbered stars: 1 amine (or outer) side, 2 acyl side, 3 side chain; on linkers, the order of the positions; unused ones are H or OH. Square brackets hold non-standard residues; d marks the D form. Peptide text beside a SMILES is read from it. X1 = C[C@@H](OP(=O)(OCOC(=O)C(C)(C)C)OCOC(=O)C(C)(C)C)[C@H](N[*:1])C(=O)[*:2]; X2 = C[C@@H](CP(=O)(OCOC(=O)C(C)(C)C)OCOC(=O)C(C)(C)C)[C@H](N[*:1])C(=O)[*:2]; His(π-(CH2)8Ph) = N[C@@H](Cc1cncn1CCCCCCCCc1ccccc1)C(=O)O
Legend:
[1] = system: Porcine Liver Esterase; experiment: PLE hydrolysis experiment (enzymatic deprotection of POM-protected peptides); type: in vitro ADME; conditions: pig, 200 μM peptide, pH 7.4, 37° C.
Description: Hydrolysis assays were run on five POM-protected peptides (see below):
(§1) There are three types of hydrolysis experiment performed in these peptides.
Type 1: 200 μM peptide with Porcine Liver Esterase (58 units, according the protocol presented in Srivastva, D. N.; Farquhar, D. Bioorg. Chem. 1984, 12, 118).
PLE hydrolysis experiment. 0.05M potassium phosphate buffer (pH 7.4) was placed in centrifuge tube. A solution of selected peptide in methanol was added to the buffer. Final concentration of the peptide was 200 μM, MeOH was less than 1% in solution. Take 1 mL of the above solution, then added Pig liver esterase (57.6 units). The reaction mixture was then incubated at 37° C. by shaking. At different time point, certain amount (50 μL) of reaction mixture was taken and placed in a separate Eppendorf tube containing 1 equiv. volume MeCN (50 μL). After work-up, the hydrolysis product was monitored by LC-MS.

[2] = Culture medium hydrolysis experiment; type: in vitro ADME; conditions: for half-life at 1 μM: 1 μM peptide in culture medium
Description: as §1
Type 2: 1 μM peptide in culture medium and 200 μM peptide in culture medium.
Culture medium hydrolysis experiment. Culture medium was placed in centrifuge tube. A solution of selected peptide in methanol was added to the culture medium. Final concentration of the peptide was 1 μM or 200 μM, MeOH was less than 1% in solution. The reaction mixture was then incubated at 37° C. by shaking. At different time point, certain amount (50 μL) of reaction mixture was taken and placed in a separate Eppendorf tube containing 1 equiv. volume MeCN (50 μL). After work-up, the hydrolysis product was monitored by LC-MS.

[3] = Cell lysate hydrolysis experiment; type: in vitro ADME; conditions: 1 μM peptide in cell lysate, 37° C.; read-out: Half-life of peptides in cell lysate
Description: as §1
Type 3: 1 μM peptide in cell lysate.
Cell lysate hydrolysis experiment. Cell lysate was placed in 96-well plate. A solution of selected peptide in DMSO was added to the cell lysate. Final concentration of the peptide was 1 μM, DMSO was less than 1% in solution. The reaction mixture was then incubated at 37° C. by shaking. At different time point, 1 equiv. by volume of MeCN was added to well to quench the reaction. After work-up, the hydrolysis product was monitored by LC-MS.

[4] = target: T1, Plk1 PBD (cellular lysates expressing HA-EGFP-Plk1) (Homo sapiens, UniProt P53350); experiment: ELISA-based PBD-binding inhibition assay; conditions: immobilized biotinylated p-T78 peptide, lysates with full-length Plk1
T1 construct: cell lysates containing full-length Plk1 were incubated with test peptides; expressed in transfected cells; host or cells: 293A cells infected with adenovirus expressing HA-EGFP-Plk1, arrested with nocodazole
Description: An ELISA-based PBD-binding inhibition assay was carried out using an immobilized biotinylated 9-mer p-T78 peptide {Biotin-C—(CH2)6-(CH2)6-DPPLHSpTAI-NH2} and the cellular lysates expressing HA-EGFP-Plk1.
A biotinylated p-T78 peptide was first diluted with 1× coating solution (KPL Inc., Gaithersburg, Md.) to the final concentration of 0.3 μM, and then 100 μl of the resulting solution was immobilized onto a 96-well streptavidin-coated plate (Nalgene Nunc, Rochester, N.Y.). The wells were washed once with PBS plus 0.05% Tween20 (PBST), and incubated with 200 μl of PBS plus 1% BSA (blocking buffer) for 1 h to prevent non-specific binding. […] Following the incubation, ELISA plates were washed 4 times with PBST. To detect bound HA-EGFP-Plk1, the plates were probed for 2 h with 100 μl/well of anti-HA antibody at a concentration of 0.5 μg/ml in blocking buffer and then washed 5 times. The plates were further probed for 1 h with 100 μl/well of HRP-conjugated secondary antibody (GE Healthcare, Piscataway, N.J.) at a 1:1,000 dilution in blocking buffer. The plates were washed 5 times with PBST and incubated with 100 μl/well of 3,3′,5,5′-tetramethylbenzidine (TMB) solution (Sigma, St. Louis, Mo.) as a substrate until a desired absorbance was reached. […] The optical density (O.D.) was measured at 450 nm by using an ELISA plate reader (Molecular Devices, Sunnyvale, Calif.).

[5] = system: HeLa cells; type: cell-based
Description: Cell culture, analysis of the cell proliferation and aberrant mitotic population, and indirect immunofluorescence microscopy: HeLa cervical carcinoma cell line CCL2, 293A and 293T cells were cultured as recommended by the American Type Culture Collection (Manassas, Va.), were cultured as recommended by American Type Culture Collection (Manassas, Va.). To prepare mitotic 293A cells expressing HA-EGFP-Plk1, cells were infected with adenovirus expressing HA-EGFP-Plk1 and arrested with 200 ng/ml of nocodazole for 16 h. To analyze the effect of the indicated compounds in cultured cells, logarithmically growing HeLa cells were treated with 200 μM of the indicated compounds for 24 h (a sufficient amount of time to enrich mitotically-arrested cells), treated with Hoechst 33342 for […], and then fixed with 4% paraformaldehyde.
Cell-based growth inhibition assays were performed.

[6] = 37° C., read-out: Half-life of peptides in culture medium

T1 sequence (P53350 whole entry): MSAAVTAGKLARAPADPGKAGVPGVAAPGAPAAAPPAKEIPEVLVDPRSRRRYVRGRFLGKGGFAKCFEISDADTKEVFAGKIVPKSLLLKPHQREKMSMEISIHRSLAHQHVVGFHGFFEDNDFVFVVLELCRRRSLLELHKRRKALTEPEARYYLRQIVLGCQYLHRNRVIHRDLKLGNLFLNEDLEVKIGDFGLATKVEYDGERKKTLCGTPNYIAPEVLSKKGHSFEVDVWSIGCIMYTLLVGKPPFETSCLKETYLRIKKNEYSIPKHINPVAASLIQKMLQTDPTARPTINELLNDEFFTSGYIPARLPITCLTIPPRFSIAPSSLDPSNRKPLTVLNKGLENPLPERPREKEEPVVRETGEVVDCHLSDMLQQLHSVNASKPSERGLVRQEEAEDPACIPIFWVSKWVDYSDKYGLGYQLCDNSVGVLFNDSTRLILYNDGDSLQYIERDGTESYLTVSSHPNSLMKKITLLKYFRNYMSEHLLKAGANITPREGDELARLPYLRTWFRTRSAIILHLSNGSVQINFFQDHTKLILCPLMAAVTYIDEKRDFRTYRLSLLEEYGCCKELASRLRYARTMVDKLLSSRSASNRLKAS

half-life at 200 μM ([2]; 200 μM peptide in culture medium, 37° C., read-out: Half-life of peptides in culture medium) [h] | SMILES | half-life at 200 μM [1] [h] | half-life at 1 μM [2, 6] [h] | half-life at 1 μM [3] [h] | hydrolysis product detected after 24 h incubation ([2]; 200 μM peptide in culture medium, 24 h) | IC50 [4] [µM] | IC50 [5] [µM]
7.43 | CC(=O)N1CCC[C@H]1C(=O)N[C@@H](CC(C)C)C(=O)N[C@@H](Cc1cncn1CCCCCCCCc1ccccc1)C(=O)N[C@@H](CO)C(=O)N[C@H](C(N)=O)[C@@H](C)OP(=O)(OCOC(=O)C(C)(C)C)OCOC(=O)C(C)(C)C [Compound A5] (Ac-PL[His(π-(CH2)8Ph)]S[X1]-NH2) | 1.9 | 0.537 | 2.32 | – | – | –
– | CC(=O)N1CCC[C@H]1C(=O)N[C@@H](CC(C)C)C(=O)N[C@@H](Cc1c[nH]cn1)C(=O)N[C@@H](CO)C(=O)N[C@H](C(N)=O)[C@@H](C)CP(=O)(OCOC(=O)C(C)(C)C)OCOC(=O)C(C)(C)C [Compound A3] (Ac-PLHS[X2]-NH2) | 0.085 | – | – | – | – | –
– | CC(=O)N1CCC[C@H]1C(=O)N[C@@H](CC(C)C)C(=O)N[C@@H](Cc1c[n+](CCO)cn1CCCCCCCCc1ccccc1)C(=O)N[C@@H](CO)C(=O)N[C@H](C(N)=O)[C@@H](C)OP(=O)(O)OCOC(=O)C(C)(C)C [Compound A10] | 4 | 6.87 | 1.48 | ^a<5% hydrolysis product could be detected after 24 h incubation. | 0.0093 | 57
– | CC(=O)N1CCC[C@H]1C(=O)N[C@@H](CC(C)C)C(=O)N[C@@H](Cc1c[nH]cn1)C(=O)N[C@@H](CO)C(=O)N[C@H](C(N)=O)[C@@H](C)OP(=O)(OCOC(=O)C(C)(C)C)OCOC(=O)C(C)(C)C [Compound A1, Ac-Pro-Leu-His-Ser-Thr(PO2POM2)-amide] (Ac-PLHS[X1]-NH2) | 0.113 | – | – | – | – | –
